Data taken from US12097174B2, “Methods and agents that enhance myogenic progenitor cell engraftment” (President and Fellows of Harvard College, priority 2018, dated 2024).

Assays:
[1] = tested on: C2C12 cells; assay: Calcium imaging in Fura-2, AM treated C2C12 cells (single-cell imaging); assay type: cell-based, mouse; settings: 10 μM NFA, 5 μM LPA; 10-20 seconds after loading
Protocol: Fura-2, AM treated C2C12 cells were exposed to 10 μM NFA, 5 μM LPA or DMSO as vehicle control to visualize the effect on intracellular calcium ion concentration using single-cell imaging. […] Scale bar 50 μm.
The ZeMPCs and C2C12 cells were incubated with Fura-2, AM (Thermo Fisher Sci F1225), a cell permeant fluorescent calcium ion indicator, for 45 minutes at 28.5° C. and 37° C., respectively, followed by imaging with Celldiscoverer7 Microscope (Zeiss). 20 seconds after imaging initiation the treatment was added to the cells and continued for a total of 2-3 minutes.

[2] = tested on: ZeMPCs; assay: ZeMPC competitive transplantation assay; assay type: in vivo; settings: co-injected into prkdc-mutant zebrafish, imaged at 7 dpt
Source text: FIGS. 20A-20B show ZeMPC competitive transplantation assays results. (FIG. 20A) Experimental design of ZeMPC competitive transplantation assays using different combinations of chemical-treated or DMSO-treated ZeMPCs marked by mCherry or GFP. ZeMPCs were co-injected from mylz2-GFP and mylz2-mCherry donors into 4- to 8-months-old prkdc-mutant recipient zebrafish and imaged at 7 dpt to assess the engraftment of mylz2-mCherry (pre-transplantation treatment with DMSO) and mylz2-GFP (pre-transplantation treatment with DMSO, LPA or NFA) cells. (FIG. 20B) Engraftment efficiency of equal numbers of DMSO-treated mCherry cells vs. DMSO-treated GFP cells (left), DMSO-treated mCherry cells vs. LPA-treated GFP cells (middle) and DMSO-treated mCherry cells vs. NFA-treated GFP cells (right).
Lipids are frequently found to enhance cell migration and homeostasis in blood and muscle tissue (Cencetti et al., 2014; Lahvic et al., 2018; Li et al., 2015; Oh et al., 2016), and so it was elected to screen mainly bioactive lipids in efforts to identify compounds that enhance ZeMPCs engraftment efficiency in vivo. Myogenic progenitor cells were treated for 4 hours with one of the 188 unique lipid compounds contained in the ICCB Known Bioactives Library. […] Engraftment efficiency was measured by imaging casper recipients at 7 dpt (FIG. 18A). […]

[3] = tested on: muscle progenitor cells; assay: Measurement of Ca2+ transients in fura-2 AM-loaded muscle progenitor cells; assay type: cell-based
Protocol: Measurement of Ca2+ transients was performed in fura-2 AM-loaded cells.
Thus, it is possible that the enhanced engraftment capacity of muscle progenitor cells exposed to these compounds involves a common Ca^2+-dependent signaling events (FIG. 9).

[4] = tested on: mouse satellite cells; assay: Mouse satellite cell transplantation into pre-injured TA muscle, engraftment by bioluminescence imaging (BLI); assay type: in vivo; settings: for BLI radiance (mean±SEM): 10 μM NFA (n=13) or 5 μM LPA (n=17) prior to transplant, vehicle 8,214,000±1,462,346; for engraftment efficiency of mouse satellite cells: 4 h at 37° C. with 10 μM NFA or 5 μM LPA, 5000 cells per recipient
Protocol: Specifically, BLI radiance (mean±SEM) for muscle precursors treated with 10 μM NFA or 5 μM LPA prior to transplant were 27,236,923±6,849,754 p/s (n=13) and 25,637,059±4,410,195 p/s (n=17), respectively, in comparison to 8,214,000±1,462,346 p/s (n=15) vehicle-treated cells (1-way ANOVA between vehicle-treated group and either NFA or LPA treated group, p≤0.01) (FIGS. 8A-8C).
To this end, mouse satellite cells were again sorted from double-transgenic (luc+GFP+) mice and exposed them to NFA, LPA, or vehicle (DMSO) under the optimal dose conditions established using the fish model (see above; 4 h. treatment at 37° C. with 10 μM of NFA or 5 μM of LPA), prior to transplant. Compound-treated cells were then recovered and, after washing out the media containing the compounds (NFA, LPA or DMSO), counted and transplanted at 5000 cells per recipient into the pre-injured TA muscles of non-transgenic FVB hosts. The kinetics of muscle engraftment were subsequently assessed by weekly BLI imaging of transplanted limbs. Similar to the fish experiments, both NFA and LPA enhanced the engraftment efficiency of mouse satellite cells in these in vivo transplantation assays (FIGS. 14C and 14D), indicating conserved effects of these pro-myogenic compounds on mammalian muscle precursor cells.
Mouse satellite cells were isolated as previously described (Maesner et al., 2016; Sherwood et al., 2004; Xu et al., 2013). 25 μl (0.03 mg/ml) of cardiotoxin (CDTX) (Latoxan) was injected 24 h prior to transplantation into the TA muscle of recipient mice (FVB/NJ). Luc-GFP tagged satellite cells were isolated and plated on a collagen/laminin-coated plate and treated with NFA (10 μM), LPA (5 μM) or DMSO, as the vehicle control, in culture media for 4 hours at 37° C. The culture media contained 78% F10 (GIBCO), 20% horse serum (Atlanta Biologics), 1% penicillin-streptomycin (Invitrogen), 1% GlutaMAX (Invitrogen), and 5 ng/ml bFGF (Sigma). After 4 hours, cells were washed with DPBS, harvested, and counted, followed by transplantation of 5000 satellite cells intramuscularly into the CDTX pre-injured TA of FVB recipients.
Mice were anesthetized with isoflurane and weighed. 150 mg/kg of luciferin (Goldbio) was administered by IP injection. BLI was acquired using IVIS Spectrum every 2 minutes, at F-stop=1.0 at 5 min after luciferin injection. The acquired images were analyzed and the highest captured radiance in the region of interest (ROI) was measured.

## lysophosphatidic acid [LPA]
[1]
  intracellular calcium ion concentration: increase
[2]
  advantage compared to DMSO-treated control cells in competitive transplantation: ~2 fold
[3]
  cytoplasmic Ca2+ concentration: stimulate increases
[4]
  BLI radiance (mean±SEM): 25,637,059±4,410,195 p/s
  engraftment efficiency of mouse satellite cells: enhanced

## O=C(O)c1cccnc1Nc1cccc(C(F)(F)F)c1 [NFA, niflumic acid]
[1]
  intracellular calcium ion concentration: increase
[2]
  advantage compared to DMSO-treated control cells in competitive transplantation: ~2 fold
[3]
  cytoplasmic Ca2+ concentration: stimulate increases
[4]
  BLI radiance (mean±SEM): 27,236,923±6,849,754 p/s
  engraftment efficiency of mouse satellite cells: enhanced
